Here are results for four compounds from the NIST ThermoML archive (doi:10.1021/je700206y).

Numbers after ± are expanded uncertainties.

For series [1] the following is noted: Liquid; for mass density: 293.2 K, 101.33 kPa; for Normal boiling temperature: Distillation.
Series [2] is described as follows: refractive index (Na D-line) (dimensionless). The conditions noted are these: 293.2 K; 101.33 kPa; Liquid; Standard Abbe refractometry.
Series [3] can be described thus: Boiling temperature at pressure P. The conditions noted are these: 1.733 kPa; Liquid; Distillation.

Take `O=CO` [formic acid]: in series [1], the mass density was determined as 1220.04 ± 1 kg/m3 and the Normal boiling temperature was 101.2 ± 0.2 °C. Moreover, the refractive index in series [2] turned out to be 1.37144 ± 0.0007.

As to `COC(=O)CCCC(=O)OC` [dimethyl pentanedioate], in series [1], the mass density was found to be 1087.67 ± 0.63 kg/m3 and the Normal boiling temperature turned out to be 214.2 ± 0.2 °C. Moreover, in series [2], the refractive index is reported as 1.42454 ± 0.0007.

`COC(=O)CCC(=O)OC` [dimethyl 1,4-butanedioate]: in series [1], the mass density turned out to be 1119.13 ± 1.6 kg/m3 and the Normal boiling temperature came out at 196.1 ± 0.2 °C. In series [2], the refractive index is reported as 1.41969 ± 0.00078.

On to `COC(=O)CCCCC(=O)OC` [dimethyl 1,6-hexanedioate], for which the mass density in series [1] turned out to be 1061.72 ± 0.56 kg/m3. Also, the “Boiling temperature at pressure P” value in series [3] was 115 ± 1 °C. The refractive index in series [2] amounted to 1.42825 ± 0.0007.
